Among the data in article PMC6540952 (Chemical Science, 2019) are IC50 values, retold here.

This test has as its target IP6K1 (Homo sapiens, UniProt Q92551). Description: NMR kinase activity assay with [[…]6]InsP6, […] ATP. The format is biochemical.

IP6K1, sequence (Q92551 whole entry): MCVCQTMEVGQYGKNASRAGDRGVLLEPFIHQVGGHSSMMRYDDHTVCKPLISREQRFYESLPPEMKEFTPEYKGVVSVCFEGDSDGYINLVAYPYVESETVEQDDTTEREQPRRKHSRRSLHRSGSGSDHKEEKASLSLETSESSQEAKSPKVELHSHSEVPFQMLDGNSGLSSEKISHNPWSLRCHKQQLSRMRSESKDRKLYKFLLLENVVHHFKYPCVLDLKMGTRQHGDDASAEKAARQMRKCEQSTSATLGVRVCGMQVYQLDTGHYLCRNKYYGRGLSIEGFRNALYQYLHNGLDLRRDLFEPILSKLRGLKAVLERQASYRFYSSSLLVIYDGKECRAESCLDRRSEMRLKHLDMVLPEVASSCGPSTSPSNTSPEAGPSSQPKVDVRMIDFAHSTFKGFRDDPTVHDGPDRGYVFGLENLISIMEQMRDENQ

In turn, `O=[N+]([O-])c1ccc(CNc2nc(NCc3cccc(C(F)(F)F)c3)nc3[nH]cnc23)cc1` [TNP] displayed an IC50 of 2.25 µM. This counts as single-digit micromolar.
